# Measured values reported in patent US12180214B2, “Crystalline forms of (s)-4-amino-6-((1-(3-chloro-6-phenylimidazo[1,2-b]pyridazine-7-yl)ethyl)amino)pyrimidine-5-carbonitrile as inhibitors of phosphatidylinositol-3-kinase” (HUTCHISON MEDIPHARMA LIMITED, priority 2018, dated 2024).
# Legend:
# Format in all cases: physicochemical
# [1] = Hygroscopicity by dynamic vapor sorption (DVS); settings: relative humidity of 0-95% at 25° C.
# Experimental: Determination method: the test samples of Form I, Form IV, and Form V of compound of Formula A were placed in the sample dishes of the dynamic vapor sorption instrument (DVS-INTRINSIC) respectively. Then the weight gains by moisture absorption of the samples were measured at a relative humidity of 0-95% at 25° C. The results were shown in FIG. 16, FIG. 17, and FIG. 18.
# [2] = Stability of Form I, Form IV, and Form V under high temperature, high humidity and illumination conditions; settings: for Stability (chemical purity and crystalline form), conclusion: high temperature, high humidity, and illumination conditions for 10 days
# Experimental: Determination method: the test samples of Form I, Form IV, and Form V of compound of Formula A were placed on the culture dishes respectively, which were uncovered and placed in sealed clean containers. The containers were placed under the conditions of a temperature of 60° C., a temperature of 25° C. and a relative humidity of 92.5%±5%, and an illumination of 4500 lx±500 lx respectively for 10 days. Then sampled, investigated for the purity and crystalline form of the samples, and compared the investigation results.
# [3] = Solubility of Form I, Form IV, and Form V in buffers of different pH; settings: for solubility at 0.5 hour / solubility at 2 hours: buffer, 37 °C, thermodynamic from solid; for Solubility in the test buffers, conclusion: buffers pH 1.2-6.8, 37° C.
# Experimental: Determination method: excess amount of samples of Form I, Form IV, and Form V of compound of Formula A were suspended in the buffers of different pH respectively. The system was saturated by shaking for a period of time at 37° C. in a water bath of constant temperature. Then the system was filtered, and the filtrate was used for determining solubility of the samples. The buffers of different pH were prepared according to the US pharmacopeia (USP40-NF35).
# [4] = Stability of Form IV mixed with excipients (starch, microcrystalline cellulose); settings: high temperature, high humidity, and illumination conditions, 30 days
# Experimental: Determination method: 50 mg of samples of Form IV of compound of Formula A were mixed with 200 mg of excipients starch and microcrystalline cellulose respectively. The mixtures were used as Lest samples and placed on the culture dishes respectively, which were uncovered and placed in sealed clean containers. Then the containers were placed under the conditions of a temperature of 60° C., a temperature of 25° C. and a relative humidity of 92.5%±5%, and an illumination of 4500 lx±500 lx respectively for 30 days. Then sampled, investigated for the change of crystalline form of the samples, and compared the investigation results.
# [5] = High humidity (92.5% RH), 25° C., 5 days
# [6] = High humidity (92.5% RH), 25° C., 10 days
# [7] = High temperature (60° C.), 5 days
# [8] = High temperature (60° C.), 10 days
# [9] = Illumination (4500 Lx), 10 days
SMILES,Hygroscopicity (weight gain by moisture absorption) [1],Chemical purity (%) ([2]; 0 day),"Chemical purity (%) [2, 5] [%]","Chemical purity (%) [2, 6] [%]","Chemical purity (%) [2, 7] [%]","Chemical purity (%) [2, 8] [%]","Chemical purity (%) ([2]; Illumination (4500 Lx), 5 days)","Chemical purity (%) [2, 9] [%]","Stability (chemical purity and crystalline form), conclusion [2]","Solubility in the test buffers, conclusion [3]",further results
"C[C@H](Nc1ncnc(N)c1C#N)c1cc2ncc(Cl)n2nc1-c1ccccc1 [Form I, (S)-4-amino-6-((1-(3-chloro-6-phenylimidazo[1,2-b]pyridazin-7-yl)ethyl)amino)pyrimidine-5-carbonitrile]",non-hygroscopic,99.76,99.65,99.60,99.63,99.63,99.61,99.45,stable,good solubility,"solubility at 0.5 hour ([3]; pH 1.2, simulated gastric fluid, buffer pH 1.2, shaken at 37° C. water bath for 0.5 hour): 10800 µg/mL; solubility at 0.5 hour ([3]; pH 2.1, aqueous buffer, buffer pH 2.1, shaken at 37° C. water bath for 0.5 hour): 800 µg/mL; solubility at 0.5 hour ([3]; pH 4.5, aqueous buffer, buffer pH 4.5, shaken at 37° C. water bath for 0.5 hour): 40 µg/mL; solubility at 0.5 hour ([3]; pH 6.8, aqueous buffer, buffer pH 6.8, shaken at 37° C. water bath for 0.5 hour): 30 µg/mL"
"C[C@H](Nc1ncnc(N)c1C#N)c1cc2ncc(Cl)n2nc1-c1ccccc1 [Form IV, (S)-4-amino-6-((1-(3-chloro-6-phenylimidazo[1,2-b]pyridazin-7-yl)ethyl)amino)pyrimidine-5-carbonitrile]",non-hygroscopic,99.27,99.68,99.68,99.57,99.68,99.59,99.55,stable,good solubility,"Stability mixed with excipients, conclusion [4]: stable; solubility at 2 hours ([3]; pH 1.2, simulated gastric fluid, buffer pH 1.2, shaken at 37° C. water bath for 2 hours): 8560 µg/mL; solubility at 2 hours ([3]; pH 2.1, aqueous buffer, buffer pH 2.1, shaken at 37° C. water bath for 2 hours): 500 µg/mL; solubility at 2 hours ([3]; pH 4.5, aqueous buffer, buffer pH 4.5, shaken at 37° C. water bath for 2 hours): 20 µg/mL; solubility at 2 hours ([3]; pH 6.8, aqueous buffer, buffer pH 6.8, shaken at 37° C. water bath for 2 hours): 20 µg/mL"
"C[C@H](Nc1ncnc(N)c1C#N)c1cc2ncc(Cl)n2nc1-c1ccccc1 [Form V, (S)-4-amino-6-((1-(3-chloro-6-phenylimidazo[1,2-b]pyridazin-7-yl)ethyl)amino)pyrimidine-5-carbonitrile]",non-hygroscopic,99.70,99.88,99.87,99.88,99.87,99.85,99.81,stable,good solubility,"Solubility ([3]; buffer pH 1.2, shaken at 37° C. water bath for 2 hours): 9640 µg/mL; Solubility ([3]; buffer pH 2.1, shaken at 37° C. water bath for 2 hours): 580 µg/mL; Solubility ([3]; buffer pH 4.5, shaken at 37° C. water bath for 2 hours): 20 µg/mL; Solubility ([3]; buffer pH 6.8, shaken at 37° C. water bath for 2 hours): 20 µg/mL"
